# Literature values in patent US20030039701A1 (priority 2000, published 2003).
# Where two headings read alike, the source gives them in different places.
# Tests used:
# [1] = supplementation
# young female rats = settings: mini-osmotic pumps
# aromatase = target: T1, aromatase (Homo sapiens, UniProt P11511); settings: relative to chrysin, AG, ANG
# T1 sequence (P11511 1-503): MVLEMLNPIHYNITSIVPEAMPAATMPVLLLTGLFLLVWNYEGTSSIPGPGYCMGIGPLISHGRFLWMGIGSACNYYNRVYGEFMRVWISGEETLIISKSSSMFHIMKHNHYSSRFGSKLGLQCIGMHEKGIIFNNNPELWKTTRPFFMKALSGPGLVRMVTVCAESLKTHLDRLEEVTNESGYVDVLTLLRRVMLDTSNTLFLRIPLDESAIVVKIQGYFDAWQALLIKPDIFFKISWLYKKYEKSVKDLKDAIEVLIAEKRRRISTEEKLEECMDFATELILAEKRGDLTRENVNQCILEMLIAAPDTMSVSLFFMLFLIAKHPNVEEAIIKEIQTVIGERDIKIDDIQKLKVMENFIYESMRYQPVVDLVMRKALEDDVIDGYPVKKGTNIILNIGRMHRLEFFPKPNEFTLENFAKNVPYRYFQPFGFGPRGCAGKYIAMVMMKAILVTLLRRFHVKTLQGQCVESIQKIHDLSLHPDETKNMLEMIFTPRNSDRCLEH
# hypogonadal men = settings: Caucasian group
# [2] = system: prostate and seminal vesicle weights
# [3] = 300 mg/wk for six weeks; TE: shoulders; ND: shoulders and chest
# HIV-infected men = settings: pharmacological doses
# [4] = not given; remark: listed apart in the source
# patients on dialysis = settings: compared with placebo
# androgen receptor = settings: seminal vesicle
smiles,measurement,setting,value
C[C@]12CC[C@H]3[C@@H](CCC4=C[C@@H](O)CC[C@@]43C)[C@@H]1CC[C@@H]2O [4-androstenediol],urine testosterone concentration relative to 4-androstenedione,[1],10 fold
C[C@]12CC[C@H]3[C@@H](CC=C4C[C@@H](O)CC[C@@]43C)[C@@H]1CC[C@@H]2O [5-androstenediol],proportion of protein in the body composition,young female rats,increased the proportion of protein
"COc1ccc(-c2coc3cc(O)cc(O)c3c2=O)cc1 [Biochanin A, 5,7-dihydroxy-4′-methoxyisoflavone]",aromatase inhibition,aromatase,"inhibited aromatase, but to a lesser degree"
"C[C@]12CC[C@H](O)CC1=CC[C@@H]1[C@@H]2CC[C@]2(C)C(=O)CC[C@@H]12 [DHEA, dehydro-epiandrosterone]",plasma testosterone,50 mg dose,restored plasma testosterone to levels similar to those observed in young women
same,plasma testosterone,200 mg dose,slightly below the levels observed in normal men
"C[C@@H]1CC2=CC(=O)CC[C@@H]2[C@H]2CC[C@]3(C)[C@@H](O)CC[C@H]3[C@@H]21 [MENT, 7α-methyl-19-nor-testosterone]",anabolic potency relative to testosterone,levator ani muscles,ten-times as potent as testosterone
same,"sexual interest and activity, spontaneous erection",hypogonadal men,significant increases
same,androgenic potency relative to testosterone,[2],four- to five-times more androgenic than testosterone
"CCCCCCCCCC(=O)O[C@H]1CC[C@H]2[C@@H]3CCC4=CC(=O)CC[C@@H]4[C@H]3CC[C@]12C [ND, 19-nor-testosterone decanoate]",body circumferences (of fifteen),[3],significant increases
same,"total weight, lean body mass, body cell mass, muscle size and strength",HIV-infected men,significant gains
"CCCCCCC(=O)O[C@H]1CC[C@H]2[C@@H]3CCC4=CC(=O)CC[C@]4(C)[C@H]3CC[C@]12C [TE, testosterone enanthate]","sexual interest and activity, spontaneous erection",hypogonadal men,significant increases
same,body circumferences (of fifteen),[3],significant increases
"C[C@]12CC[C@H]3[C@@H](CCC4=CC(=O)CC[C@@H]43)[C@@H]1CC[C@@H]2O [nandrolone, 19-nor-testosterone]",energy expenditure,young female rats,increased energy expenditure
same,decrease in HDL-cholesterol,[4]; body builders,25-27%
same,decrease in diastolic blood pressure,[4]; body builders,25-27%
same,azoospermia (lack of sperm),[4]; nandrolone use,azoospermia
same,lean body mass,patients on dialysis,increased significantly
C[C@]12CC[C@H]3[C@@H](CCC4=CC(=O)CC[C@@]43C)[C@@H]1CC[C@@H]2O [testosterone],proportion of protein in the body composition,young female rats,increased the proportion of protein
same,change of affinity to the androgen receptor on conversion by 5-α-reductase,androgen receptor,increasing by seven- to eight-fold
